Experimental data: patent publication US20250230165A1, “HETEROCYCLIC COMPOUNDS FOR USE IN THE TREATMENT OF CANCER” (ARTIOS PHARMA LIMITED, priority 2021, published 2025)

These molecules were tested against T1, Human Polθ polymerase domain (aa1820-2590) (Homo sapiens, UniProt O75417) (assay: Polθ Polymerase Domain Kinact/KI Assay (PicoGreen)). Settings: 0.8 nM Polθ, 100 nM DNA substrate, kobs vs [I] fit for 2-step covalent inhibitor.
T1 construct: Human Polθ polymerase domain (aa1820-2590) was expressed in E. coli; made in house; host or cells: E. coli
T1 sequence (O75417 1820-2590): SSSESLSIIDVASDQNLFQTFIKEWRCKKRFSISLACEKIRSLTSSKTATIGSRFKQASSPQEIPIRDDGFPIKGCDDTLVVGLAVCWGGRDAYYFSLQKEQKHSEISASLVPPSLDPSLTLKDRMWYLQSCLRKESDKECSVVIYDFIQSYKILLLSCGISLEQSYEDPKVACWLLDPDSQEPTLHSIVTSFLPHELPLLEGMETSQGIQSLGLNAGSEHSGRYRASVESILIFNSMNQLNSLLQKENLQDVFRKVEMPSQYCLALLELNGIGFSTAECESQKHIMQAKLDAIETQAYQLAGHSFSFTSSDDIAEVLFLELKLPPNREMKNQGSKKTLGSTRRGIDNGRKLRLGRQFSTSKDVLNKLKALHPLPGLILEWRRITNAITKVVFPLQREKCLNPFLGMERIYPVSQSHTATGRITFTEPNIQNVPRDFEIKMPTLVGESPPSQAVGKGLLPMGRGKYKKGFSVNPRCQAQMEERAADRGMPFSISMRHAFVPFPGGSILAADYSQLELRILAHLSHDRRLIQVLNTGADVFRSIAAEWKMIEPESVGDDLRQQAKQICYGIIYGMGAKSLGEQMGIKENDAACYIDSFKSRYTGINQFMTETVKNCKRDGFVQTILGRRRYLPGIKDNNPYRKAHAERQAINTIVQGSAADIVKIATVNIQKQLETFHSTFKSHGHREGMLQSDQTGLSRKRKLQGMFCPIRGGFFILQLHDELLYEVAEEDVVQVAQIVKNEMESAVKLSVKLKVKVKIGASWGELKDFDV
Type: biochemical
Method in brief: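 Time-dependent inhibition was followed by quenching reactions with EDTA at points up to 60 min, then staining product DNA with PicoGreen fluorescence. Reactions held 0.8 nM E. coli-expressed Polθ, 100 nM primed DNA substrate and […] at pH 7.5, 1% DMSO. kobs versus inhibitor concentration gave Kinact and KI.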

SMILES | Kinact/Kl [M⁻¹ s⁻¹]
C=CC(=O)N1CCc2ncn(CCN3C[C@H]4CC(=O)N(c5cc(C(F)(F)F)cc(C)n5)[C@@H]4C(=O)N(C)c4cccc(F)c43)c2C1 [Example 50, (3aR,11aS)-5-(2-(5-acryloyl-4,5,6,7-tetrahydro-3H-imidazo[4,5-c]pyridin-3-yl)ethyl)-6-fluoro-10-methyl-1-(6-methyl-4-(trifluoromethyl)pyridin-2-yl)-1,3a,4,5,10,11a-hexahydro-2H-benzo[b]pyrrolo[2,3-f][1,4]diazocine-2,11(3H)-dione] | 190000
C=CC(=O)N1CC(N2CC[C@@H](CCN3C[C@H]4CC(=O)N(c5cc(C(F)(F)F)cc(C)n5)[C@@H]4C(=O)N(C)c4cccc(Cl)c43)C2)C1 [Example 220, (3aR,11aS)-5-(2-((S)-1-(1-acryloylazetidin-3-yl)pyrrolidin-3-yl)ethyl)-6-chloro-10-methyl-1-(6-methyl-4-(trifluoromethyl)pyridin-2-yl)-1,3a,4,5,10,11a-hexahydro-2H-benzo[b]pyrrolo [2,3-f][1,4] diazocine-2,11(3H)-dione] | 3.66e+06
C=CC(=O)N1CC(n2cnc(CN3C[C@H]4CC(=O)N(c5cc(C(F)(F)F)cc(C)n5)[C@@H]4C(=O)N(C)c4cccc(F)c43)c2)C1 [Example 38, (3aR,11aS)-5-((1-(1-acryloylazetidin-3-yl)-1H-imidazol-4-yl)methyl)-6-fluoro-10-methyl-1-(6-methyl-4-(trifluoromethyl)pyridin-2-yl)-1,3a,4,5,10,11a-hexahydro-2H-benzo[b]pyrrolo[2,3-f][1,4]diazocine-2,11(3H)-dione] | 2.39e+06
Cc1cc(C(F)(F)F)cc(N2C(=O)C[C@@H]3CN(Cc4ccc(CNC(=O)/C=C/CN(C)C)cc4)c4c(C)cccc4N(C)C(=O)[C@H]32)n1 [Example 177, (E)-N-(4-(((3aR, 11aS)-6,10-dimeth-yl-1-(6-methyl-4-(trifluoromethyl)-pyridin-2-yl)-2,11-dioxo-1,2,3,3a,4, 10,11,11a-octa-hydro-5H-benzo[b]pyrrolo[2,3-f][1,4]diazocin-5-yl)-methyl)benzyl)-4-(dimethylamino)-but-2-enamide] | 260000
C=CC(=O)N1CCC[C@H]1c1noc(CN2C[C@H]3CC(=O)N(c4cc(C(F)(F)F)cc(C)n4)[C@@H]3C(=O)N(C)c3cccc(C)c32)n1 [Example 269, (3aR,11aS)-5-((3-((S)-1-acryloylpyrrolidin-2-yl)-1,2,4-oxadiazol-5-yl)methyl)-6,10-dimethyl-1-(6-methyl-4-(trifluoromethyl)pyridin-2-yl)-1,3a,4,5,10,11a-hexahydro-2H-benzo[b]pyrrolo[2,3-f][1,4]diazocine-2,11(3H)-dione] | 970000
C=CC(=O)N1CCN(CCN2C[C@H]3CC(=O)N(c4cc(C(F)(F)F)cc(C)n4)[C@@H]3C(=O)N(C)c3cccc(C)c32)CC1 [Example 256, (3aR,11aS)-5-(2-(4-acryloylpiperazin-1-yl)ethyl)-6,10-dimethyl-1-(6-methyl-4-(trifluoromethyl)pyridin-2-yl)-1,3a,4,5,10,11a-hexahydro-2H-benzo[b]pyrrolo[2,3-f][1,4]diazocine-2,11(3H)-dione] | 1.11e+06
C=CC(=O)N1CCN(CCN2C[C@H]3CC(=O)N(c4cc(C(F)(F)F)cc(C)n4)[C@@H]3C(=O)N(C)c3cccc(Cl)c32)CC1CC#N (mixture of isomers) [Example 258a, 2-((R/S)-1-acryloyl-4-(2-((3aR,11aS)-6-chloro-10-methyl-1-(6-methyl-4-(trifluoromethyl)pyridin-2-yl)-2,11-dioxo-1,2,3,3a,4,10,11,11a-octahydro-5H-benzo[b]pyrrolo[2,3-f][1,4]diazocin-5-yl)ethyl)piperazin-2-yl)acetonitrile] | 1.65e+06
Cc1cc(C(F)(F)F)cc(N2C(=O)C[C@@H]3CN(CCOCC4CN(C(=O)C5=CCCN(C)C5)C4)c4c(C)cccc4N(C)C(=O)[C@H]32)n1 [Example 197, (3aR,11aS)-6,10-dimethyl-5-(2-((1-(1-methyl-1,2,5,6-tetrahydropyridine-3-carbonyl)azeti-din-3-yl)methoxy)-ethyl)-1-(6-methyl-4-(trifluoromethyl)-pyridin-2-yl)-1,3a, 4,5,10,11a-hexa-hydro-2H-benzo [b]pyrrolo[2,3-f] [1,4]diazocine-2,11(3H)-dione] | 1.67e+06
C=CC(=O)N1CCC[C@@H]1c1nnc(CN2C[C@H]3CC(=O)N(c4cc(C(F)(F)F)cc(C)n4)[C@@H]3C(=O)N(C)c3cccc(C)c32)o1 [Example 272, (3aR,11aS)-5-((5-((R)-1-acryloylpyrrolidin-2-yl)-1,3,4-oxadiazol-2-yl)methyl)-6,10-dimethyl-1-(6-methyl-4-(trifluoromethyl)pyridin-2-yl)-1,3a,4,5,10,11a-hexahydro-2H-benzo[b]pyrrolo[2,3-f][1,4]diazocine-2,11(3H)-dione] | 33000
C=C(CN(C)C)C(=O)N1CC(CCCN2C[C@H]3CC(=O)N(c4cc(C(F)(F)F)cc(C)n4)[C@@H]3C(=O)N(C)c3cccc(Cl)c32)C1 [Example 299, (3aR,11aS)-6-chloro-5-(3-(1-(2-((dimethylamino)methyl)acryloyl)azetidin-3-yl)propyl)-10-methyl-1-(6-methyl-4-(trifluoromethyl)pyridin-2-yl)-1,3a,4,5,10,11a-hexahydro-2H-benzo[b]pyrrolo[2,3-f][1,4]diazocine-2,11(3H)-dione] | 1.99e+06
Cc1cc(C(F)(F)F)cc(N2C(=O)C[C@@H]3CN(CCCOC4CN(C(=O)/C=C/CN(C)C)C4)c4c(F)cccc4N(C)C(=O)[C@H]32)n1 [Example 43, (3aR,11aS)-5-(3-((1-((E)-4-(dimethylamino)but-2-enoyl)azetidin-3-yl)oxy)propyl)-6-fluoro-10-methyl-1-(6-methyl-4-(trifluoromethyl)pyridin-2-yl)-1,3a,4,5,10,11a-hexahydro-2H-benzo[b]pyrrolo[2,3-f][1,4]diazocine-2,11(3H)-dione] | 1.9e+06
C=CC(=O)N1CCc2c(ncn2CCN2C[C@H]3CC(=O)N(c4cc(C(F)(F)F)cc(C)n4)[C@@H]3C(=O)N(C)c3cccc(F)c32)C1 [Example 49, (3aR,11aS)-5-(2-(5-acryloyl-4,5,6,7-tetrahydro-1H-imidazo[4,5-c]pyridin-1-yl)ethyl)-6-fluoro-10-methyl-1-(6-methyl-4-(trifluoromethyl)pyridin-2-yl)-1,3a,4,5,10,11a-hexahydro-2H-benzo[b]pyrrolo[2,3-f][1,4]diazocine-2,11(3H)-dione] | 340000

The next lines start with the values.

Kinact/Kl [M⁻¹ s⁻¹] | SMILES
4.57e+06 | C=CC(=O)N1CC2(CN(CCN3C[C@H]4CC(=O)N(c5cc(C(F)(F)F)cc(C)n5)[C@@H]4C(=O)N(C)c4cccc(C)c43)CC2(C)C#N)C1 (single isomer, unassigned) [Example 119a]
2.32e+06 | C=CC(=O)N1Cc2nc(CN3C[C@H]4CC(=O)N(c5cc(C(F)(F)F)cc(C)n5)[C@@H]4C(=O)N(C)c4cccc(Cl)c43)cn2C[C@H]1C (racemic) [Example 143b, (3aR,11aS)-5-(((S/R)-7-acryloyl-6-methyl-5,6,7,8-tetrahydroimidazo[1,2-a]pyrazin-2-yl)methyl)-6-chloro-10-methyl-1-(6-methyl-4-(trifluoromethyl)pyridin-2-yl)-1,3a,4,5,10,11a-hexahydro-2H-benzo[b]pyrrolo[2,3-f][1,4]diazocine-2,11(3H)-dione]
1.2e+06 | C=CC(=O)N1CC2(C1)NCCN(CCN1C[C@H]3CC(=O)N(c4cc(C(F)(F)F)cc(C)n4)[C@@H]3C(=O)N(C)c3cccc(F)c31)[C@H]2C (racemic) [Example 34a, (3aR,11aS)-5-(2-((S/R)-2-acryloyl-9-methyl-2,5,8-triazaspiro[3.5]nonan-8-yl)ethyl)-6-fluoro-10-methyl-1-(6-methyl-4-(trifluoromethyl)pyridin-2-yl)-1,3a,4,5, 10,11a-hexahydro-2H-benzo[b]pyrrolo [2,3-f][1,4]diazocine-2,11(3H)-dione]
980000 | C=CC(=O)N1C[C@@H](n2cc(CN3C[C@H]4CC(=O)N(c5cc(C(F)(F)F)cc(C)n5)[C@@H]4C(=O)N(C)c4cccc(C)c43)cn2)[C@@H](F)C1 (single isomer, unassigned) [Example 325c]
2.31e+06 | Cc1cc(C(F)(F)F)cc(N2C(=O)C[C@@H]3CN(Cc4ccc5c(c4)CN(C(=O)/C=C/CN(C)C)[C@H]5CC#N)c4c(Cl)cccc4N(C)C(=O)[C@H]32)n1 (racemic) [Example 310a, 2-((S/R)-5-(((3aR,11aS)-6-chloro-10-methyl-1-(6-methyl-4-(trifluoromethyl)pyridin-2-yl)-2,11-dioxo-1,2,3,3a,4,10,11,11a-octahydro-5H-benzo[b]pyrrolo[2,3-f][1,4]diazocin-5-yl)methyl)-2-((E)-4-(dimethylamino)but-2-enoyl)isoindolin-1-yl)acetonitrile]
